Assay results: paper PMC8895762 (BMC Complementary Medicine and Therapies, 2022)
Read-outs that look alike come from different tables or passages of the source.

How the values were obtained:
[1] = CCK-8 cell viability assay; format: cell-based, Murine; conditions: mouse
Procedure: (§1) Murine RAW 264.7 macrophages were purchased from the American Tissue Culture Collection (Manassas, USA). These cells were incubated in DMEM supplemented with 10% FBS, 100 U/mL penicillin and 100 U/mL streptomycin in humidified 5% carbon dioxide (CO2) at 37 °C [16, 17].
(§2) The effects of 19 constituents on the viability of RAW 264.7 macrophages were assessed by CCK-8 assay. Prior to treatment, RAW 264.7 macrophages (5 × 10^3 cells/well) were seeded into 96-well plates and incubated for 24 h. All cultured cells were treated with or without 19 compounds at a concentration of 40 μM at 37 °C for 24 h. After incubation, 10 μL of CCK-8 solution was added to each well and incubated at 37 °C. After 2 h, the absorbance of each well was measured at 450 nm in a microplate reader. Cell viability was calculated using the following formular:
(§3) Cell viability (%) = Asample/Acontrol × 100, where Asample and Acontrol are the absorbance of cells treated with the compound and untreated cells, respectively. Moreover, the latter is expressed as 100% cell viability.

[2] = tested on: NO production in LPS-stimulated RAW 264.7 macrophages; assay: NO production by the Griess method; format: cell-based, Murine; conditions: LPS 1 μg/mL; for IC50: RAW 264.7 macrophages, mean ± SD, n = 3; for inhibition at 40 µM: RAW264.7, read-out: NO inhibition rate; for inhibition at 40 µM / NO inhibition rate: 40 μM
Procedure: as §1
The effects of 19 constituents on NO production in LPS-induced RAW 264.7 macrophages were determined using the Griess method. Prior to treatment, RAW 264.7 macrophages (5 × 10^3 cells/well) were seeded into 96-well plates and incubated for 24 h. […] After 1 h, cells were incubated with or without LPS at a concentration of 1 μg/mL at 37 °C for 24 h. After incubation, 50 μL of each supernatant solution was collected and mixed with equal volumes of Griess Reagent I and Griess Reagent II, respectively. The absorbance (A) was measured at 540 nm after 10 min of incubation at room temperature. The standard concentration of sodium nitrite was used to calculate the nitrite concentration. Moreover, the NO inhibition rate (%) = (ALPS − ALPS + sample)/(ALPS − Acontrol) × 100, where ALPS, ALPS + sample, and Acontrol are the absorbance of LPS model group, LPS + sample group, and DMEM group, respectively.

BV2 microglia = tested on: BV2 microglia; design: method as in PMID 22552813; conditions: 40, 60 and 80 μM; cited from earlier work
RAW 264.7 macrophages = assay: CCK-8 cell viability assay; format: cell-based, Murine; conditions: 40 μM, 24 h, RAW 264.7 macrophages, mean ± SD, n = 3
Procedure: as §1, §2, §3

[3] = tested on: IL-1β in LPS-stimulated RAW 264.7 macrophages; assay: IL-1β secretion by ELISA; format: cell-based, Murine; conditions: 20 μM, LPS 1 μg/mL, 24 h, compared to the LPS group, p < 0.01
Procedure: (§4) The logarithmic growth phase of RAW 264.7 macrophages was inoculated in 96-well plates at a density of 5 × 10^3 cells/well. After 24 h of incubation, these cells were pretreated with respective concentrations of 20 μM of each compound (1, 4–6, 15 and 17) for 1 h, followed by the addition of LPS (1 μg/mL) for 24 h. Finally, 50 μL of each supernatant solution was taken to measure the concentrations of TNF-α, PGE2, IL-1β and IL-6, using the corresponding commercially available murine ELISA kits in accordance with the manufacturer’s instructions.

[4] = tested on: IL-6 in LPS-stimulated RAW 264.7 macrophages; assay: IL-6 secretion by ELISA; format: cell-based, Murine; conditions: 20 μM, LPS 1 μg/mL, 24 h, compared to the LPS group, p < 0.01
Procedure: as §4

[5] = tested on: PGE2 in LPS-stimulated RAW 264.7 macrophages; assay: PGE2 secretion by ELISA; format: cell-based, Murine; conditions: 20 μM, LPS 1 μg/mL, 24 h, compared to the LPS group, p < 0.01
Procedure: as §4

[6] = tested on: phosphorylated NF-κB p65 in LPS-stimulated RAW 264.7 macrophages; assay: NF-κB activation by Western blotting; format: cell-based, Murine; conditions: 20 μM, LPS 1 μg/mL, 24 h, compared to the LPS group, p < 0.01
Procedure: RAW 264.7 macrophages were seeded and pretreated with respective concentrations of 20 μM of each compound (1, 4–6, 15 and 17) for 1 h, followed by the addition of LPS (1 μg/mL) for 24 h. Subsequently, the total protein was extracted by resuspending the cells in RIPA lysis buffer. In addition, protein concentrations were measured by a Bicinchoninic acid (BCA) assay kit. Proteins were separated using SDS-PAGE gels and then electroplated onto a PVDF membrane, which was blocked with 5% skim milk for 1 h at room temperature in Tris-buffered saline-Tween (TBST). Membranes were washed three times with TBST and then incubated overnight at 4 °C in diluted (1:1000) primary antibody solution (anti-NF-κB p65 or anti-phosphorylated-NF-κB p65). After washing three times with TBST, the membranes were incubated with a 1:5000 dilution of HRP-conjugated secondary antibody for 1 h at room temperature. The immunoreactive bands were determined by densitometry and quantified using a Bio-Rad auto-developer (Bio-Rad, California, USA). All results are expressed as relative ratios to the reference protein GAPDH [16, 17].

[7] = tested on: TNF-α in LPS-stimulated RAW 264.7 macrophages; assay: TNF-α secretion by ELISA; format: cell-based, Murine; conditions: 20 μM, LPS 1 μg/mL, 24 h, compared to the LPS group, p < 0.01
Procedure: as §4

[8] = tested on: inflammatory cytokines in cells; design: method as in PMID 20221843, PMID 12105943, PMID 18448292, PMID 25821492; conditions: cited from earlier work
[9] = 40 μM, 24 h, RAW 264.7 macrophages, mean ± SD, n = 3, read-out: Cell viability (%)

Compound | IC50 ([2]; Mus musculus, RAW264.7, 24 h) [µM] | inhibition at 40 µM ([2]; Mus musculus, 24 h) [%] | Cell viability (%) (RAW 264.7 macrophages) | NO inhibition rate ([2]; 24 h) | IC50 ([2]; 24 h) [µM] | viability at 24 h, 40 µM [1] [%] | further results
O=C1C[C@@H](c2ccc(O)cc2)Oc2cc(O)cc(O)c21 [Compound 14, naringenin] | 38.5 ± 2.78 | > 50 |  |  |  |  | viability at 24 h, 40 µM [1, 9]: 93 ± 6.19%; Anti-inflammatory effect via inhibition of NF-κB and MAPKs pathways (BV2 microglia): possessed anti-inflammatory effect
C[C@@H]1O[C@@H](OC[C@H]2O[C@@H](OCCc3ccccc3)[C@H](O)[C@@H](O)[C@@H]2O)[C@H](O)[C@H](O)[C@H]1O [Compound 19, phenethyl-O-rutinoside] |  |  | 92.30 ± 9.38 | ≤ 50% | > 40 |  | 
O=c1c(O)c(-c2ccc(O)cc2)oc2cc(O[C@@H]3O[C@H](CO)[C@@H](O)[C@H](O)[C@H]3O)cc(O)c12 [Compound 3, kaempferol-7-O-β-D-glucopyranoside] | > 40 | ≤ 50 |  |  |  | 91.1 ± 5.28 | 
plantanone B [Compound 12] |  |  | 91.93 ± 8.04 | ≤ 50% | > 40 |  | 
OC[C@H]1O[C@@H](OCCc2ccccc2)[C@H](O)[C@@H](O)[C@@H]1O [Compound 17, phenethyl-O-β-D-glucopyranoside] |  |  | 92.21 ± 3.48 | greater than 50% | 19.9 ± 2.01 |  | Level of IL-1β [3]: significantly reduced; Level of IL-6 [4]: significantly reduced; Level of PGE2 [5]: significantly reduced; Phosphorylation of NF-κB p65 levels [6]: significantly lower; Level of TNF-α [7]: significantly reduced
COc1cc(O)c2c(=O)c(O[C@@H]3O[C@H](CO)[C@@H](O)[C@H](O)[C@H]3O[C@@H]3O[C@H](CO)[C@@H](O)[C@H](O)[C@H]3O)c(-c3ccc(O)cc3)oc2c1 [Compound 6, plantanone A] |  |  | 96.89 ± 1.04 |  | 12.6 ± 0.76 |  | 
O=c1c(O[C@@H]2O[C@H](CO)[C@@H](O)[C@H](O)[C@H]2O)c(-c2ccc(O)cc2)oc2cc(O)cc(O)c12 [Compound 2, astragalin] | > 40 | ≤ 50 |  |  |  |  | viability at 24 h, 40 µM [1, 9]: 95 ± 1.86%; Anti-inflammatory effects by suppressing the secretion of inflammatory cytokines [8]: anti-inflammatory effects
O=C1c2c(O)cc(O)cc2O[C@H](c2ccc(O)cc2)[C@H]1O [Compound 15, dihydrokaempferol] | ≤ 20 | > 50 |  |  | 18.3 ± 1.71 | 91.3 ± 5.38 | Level of IL-1β [3]: significantly reduced; Level of IL-6 [4]: significantly reduced; Level of PGE2 [5]: significantly reduced; Anti-inflammatory effects by suppressing the secretion of inflammatory cytokines [8]: anti-inflammatory effects; Phosphorylation of NF-κB p65 levels [6]: significantly lower; Level of TNF-α [7]: significantly reduced
O=c1c(O[C@@H]2O[C@H](CO)[C@@H](O)[C@H](O)[C@H]2O[C@@H]2O[C@H](CO)[C@@H](O)[C@H](O)[C@H]2O)c(-c2ccc(O)cc2)oc2cc(O)cc(O)c12 [Compound 5, kaempferol-3-O-sophoroside] |  |  | 93.48 ± 5.33 |  | 13.1 ± 1.61 |  | 
C[C@@H]1O[C@@H](OC[C@H]2O[C@@H](Oc3c(-c4ccc(O)cc4)oc4cc(O[C@@H]5O[C@H](CO)[C@@H](O)[C@H](O)[C@H]5O)cc(O)c4c3=O)[C@H](O)[C@@H](O)[C@@H]2O)[C@H](O)[C@H](O)[C@H]1O [Compound 8, kaempferol-3-O-rutinoside-7-O-glucopyranoside] |  |  | 95.48 ± 3.54 |  | > 40 |  | 
O=c1c(O[C@@H]2O[C@H](CO)[C@@H](O)[C@H](O)[C@H]2O)c(-c2ccc(O)cc2)oc2cc(O[C@@H]3O[C@H](CO)[C@@H](O)[C@H](O)[C@H]3O)cc(O)c12 [Compound 4, kaempferol-3,7-di-O-β-D-glucopyranoside] | 12.2 ± 1.18 | > 50 |  |  |  | 93.4 ± 6.34 | 
kaempferol-3-O-rutinoside [Compound 11] |  |  |  | greater than 50% | 31.2 ± 1.09 |  | Anti-inflammatory effects by suppressing the secretion of inflammatory cytokines [8]: anti-inflammatory effects
O=c1c(O)c(-c2ccc(O)cc2)oc2cc(O)cc(O)c12 [Compound 1, kaempferol] | ≤ 20 | > 50 |  |  | 18.4 ± 2.67 | 92.4 ± 3.96 | Level of IL-1β [3]: significantly reduced; Level of IL-6 [4]: significantly reduced; Level of PGE2 [5]: significantly reduced; Anti-inflammatory effects by suppressing the secretion of inflammatory cytokines [8]: anti-inflammatory effects; Phosphorylation of NF-κB p65 levels [6]: significantly lower; Level of TNF-α [7]: significantly reduced
OC[C@H]1O[C@@H](OC[C@H]2O[C@@H](OCCc3ccccc3)[C@H](O)[C@@H](O)[C@@H]2O)[C@H](O)[C@@H](O)[C@@H]1O [Compound 18, phenethanol-β-gentiobioside] |  |  | 92.51 ± 5.62 | ≤ 50% | > 40 |  | 
C[C@@H]1O[C@@H](OC[C@H]2O[C@@H](O[C@H]3[C@H](Oc4c(-c5ccc(O)cc5)oc5cc(O)cc(O)c5c4=O)O[C@H](CO)[C@@H](O)[C@@H]3O)[C@H](O)[C@@H](O)[C@@H]2O)[C@H](O)[C@H](O)[C@H]1O [Compound 9, kaempferol-3-O-α-L-rhamnopyranosyl-(1 → 6)-β-D-glucopyranosyl-(1 → 2)-β-D-glucopyranoside] | > 40 | ≤ 50 |  |  |  | 90.7 ± 3.71 | 
C[C@@H]1O[C@@H](OC[C@H]2O[C@@H](Oc3c(-c4ccc(O)cc4)oc4cc(O)cc(O)c4c3=O)[C@H](O[C@@H]3O[C@H](CO)[C@@H](O)[C@H](O)[C@H]3O)[C@@H](O)[C@@H]2O)[C@H](O)[C@H](O)[C@H]1O [Compound 10, kaempferol-3-O-β-D-glucopyranosyl-(1 → 2)-[α-L-rhamnopyranosyl-(1 → 6)]-β-D-glucopyranoside] | > 40 | ≤ 50 |  |  |  | 93.8 ± 5.06 | 
hostaflavanone A [Compound 16] |  |  | 92.56 ± 1.97 | ≤ 50% | > 40 |  | 
plantanone D [Compound 13] |  |  | 91.84 ± 1.11 |  | 36.1 ± 3.77 |  | 
O=c1c(O[C@@H]2O[C@H](CO)[C@@H](O)[C@H](O)[C@H]2O[C@@H]2O[C@H](CO)[C@@H](O)[C@H](O)[C@H]2O)c(-c2ccc(O)cc2)oc2cc(O[C@@H]3O[C@H](CO)[C@@H](O)[C@H](O)[C@H]3O)cc(O)c12 [Compound 7, kaempferol-3-O-β-D-[β-D-glucopyranosyl-(1 → 2)-glucopyranoside]-7-O-β-D-glucopyranoside] |  |  | 94.03 ± 4.52 |  | 26.5 ± 1.53 |  | 
